Source: patent EP1388586A2, “Identification of broadly reactive DR restricted epitopes” (priority 1998, dated 1999)
Read-outs that look alike come from different tables or passages of the source. Square brackets hold non-standard residues; d marks the D form. Ends that are not written are not given here. Peptide text beside a SMILES is read from it.

Columns and labels:
DRB10404 (DR4w14) = target: T1, DRB10404 (DR4w14) (Homo sapiens, UniProt P01903+P01911, A100R/A169T/F76Y/I96L/K127E/L162R/M171V/N62H/P40V/Q125Y/R42H/S133A/S149N/S66Y/V209L/W38E); assay: Class II peptide-binding assay, DR4w14;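 also: unlabeled peptides compete with a radiolabeled probe for binding to affinity-purified HLA-DR, neutral pH, class II amount titrated to bind a small fraction of label, IC50 approximates Kd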
T1 construct: used as sources of human HLA class II molecules; endogenous in cells; host or cells: BIN40 (EBV-transformed homozygous B cell line)
Experimental: (§1) Class II peptide-binding assays. […] These assays were chosen as to be representative of the most common DR alleles.
In appropriate stoichiometric conditions, the IC50 of an unlabeled test peptide to the purified DR is a reasonable approximation of the affinity of interaction (Kd). Peptides were tested in two to four completely independent experiments. […] Final detergent concentration in the incubation mixture was 0.05% Nonidet P-40. Assays were performed at pH 7.0 with the exception of DR3, which was performed at pH 4.5, and DRw53, which was performed at pH 5.0.
(§2) All subsequent inhibition and direct binding assays were the performed using these class II concentrations.

DRB1*0701 (DR7) = DRB1*0701 (DR7) (Homo sapiens, UniProt P01903+P01911, A100R/A102G/A103Q/D57E/D86V/E43K/F76Y/K127E/L162R/M171V/P40G/Q125H/Q99D/R33Q/R42Y/R54Q/S133A/S66F/T210M/V115G/Y107V/Y59L/Y89S); assay: Class II peptide-binding assay, DR7;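 also: unlabeled peptides compete with an iodinated probe peptide for binding to affinity-purified HLA-DR at neutral pH, DR amount titered to bind a small tracer fraction, IC50 approximating Kd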
Experimental: as §1
Radiolabeled peptides were iodinated using the chloramine-T method. […] In appropriate stoichiometric conditions, the IC50 of an unlabeled test peptide to the purified DR is a reasonable approximation of the affinity of interaction (Kd). Peptides were tested in two to four completely independent experiments. […] Final detergent concentration in the incubation mixture was 0.05% Nonidet P-40. Assays were performed at pH 7.0 with the exception of DR3, which was performed at pH 4.5, and DRw53, which was performed at pH 5.0.
as §2

DRB1*1101 (DR5w11) = target: T2, DRB1*1101 (DR5w11) (Homo sapiens, UniProt P01903+P01911, A100R/A169T/A87E/I96F/K41T/L162R/M171V/P40S/Q125H/Q178H/Q39Y/Q99D/R42S/S66Y/T262R/V115G/W38E); assay: Class II peptide-binding assay, DR5w11;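 also: competition by unlabeled test peptide against iodinated probe peptide binding to affinity-purified HLA-DR, class II amount titrated beforehand, half-maximal inhibitory concentration read as approximate Kd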
T2 construct: used as sources of human HLA class II molecules; endogenous in cells; host or cells: SWEIG (EBV-transformed homozygous B cell line)
T2 sequence (P01903 26-254, other chains not shown): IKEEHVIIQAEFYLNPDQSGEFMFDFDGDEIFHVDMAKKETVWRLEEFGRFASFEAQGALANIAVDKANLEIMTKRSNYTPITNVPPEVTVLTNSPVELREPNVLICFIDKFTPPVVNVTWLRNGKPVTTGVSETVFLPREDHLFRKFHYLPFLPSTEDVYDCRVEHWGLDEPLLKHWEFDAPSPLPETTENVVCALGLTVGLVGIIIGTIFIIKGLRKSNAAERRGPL

DRB1*0101 (DR1) = target: T3, DRB1*0101 (DR1) (Homo sapiens, UniProt P01903+P01911, A100R/D57E/F55L/F60I/F76Y/I96L/L162R/M171V/P40L/Q125E/R42F/V115G/Y59C); assay: Class II peptide-binding assay, DR1;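 also: competition assay: unlabeled test peptides inhibit binding of a radiolabeled probe peptide to purified DR, with half-maximal inhibition taken as an approximate dissociation constant Kd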
T3 construct: used as sources of human HLA class II molecules; endogenous in cells; host or cells: LG2 (EBV-transformed homozygous B cell line)

DRB1*0401 (DR4w4) = target: T4, DRB1*0401 (DR4w4) (Homo sapiens, UniProt P01903+P01911, A100K/A169T/F76Y/I96L/K127E/L162R/M171V/N62H/P40V/Q125Y/R42H/S133A/S149N/S66Y/V115G/V209L/W38E); assay: Class II peptide-binding assay, DR4w4;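 also: unlabeled test peptides compete with a radiolabeled probe peptide for binding to affinity-purified HLA-DR, with DR amount titrated to capture a small fraction of label, IC50 approximating Kd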
T4 construct: used as sources of human HLA class II molecules; endogenous in cells; host or cells: PREISS (EBV-transformed homozygous B cell line)

DRB5*0101 (DR2w2a) = target: T5, DRB5*0101 (DR2w2a) (Homo sapiens, UniProt P01903+Q30154); assay: Class II peptide-binding assay, DR2w2a (DR2w2B2);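 also: competitive binding assay: unlabeled peptide inhibiting binding of a radiolabeled probe peptide to purified DR molecules at pH 7.0, IC50 approximating Kd, lower means stronger binding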
T5 construct: used as sources of human HLA class II molecules; endogenous in cells; host or cells: GM3107 (EBV-transformed homozygous B cell line)

[1] = read-out: DR4w14 nM (In IC50 Format), purified HLA DR4w14
[2] = read-out: DR7 nM (In IC50 Format), purified HLA DR7
[3] = read-out: DR5w11 nM (In IC50 Format), purified HLA DR5w11
[4] = read-out: DR1 nM (In IC50 Format), purified HLA DR1
[5] = read-out: DR4w4 nM (In IC50 Format), purified HLA DR4w4
[6] = read-out: DR2w2B2 nM (In IC50 Format), purified HLA DR2w2β2
[7] = read-out: DR4w14 nM, Table VIII, In IC50 Format
[8] = read-out: DR7 nM, Table VIII, In IC50 Format
[9] = read-out: DR5w11 nM, Table VIII, In IC50 Format
[10] = read-out: DR1 nM, Table VIII, In IC50 Format
[11] = read-out: DR4w4 nM, Table VIII, In IC50 Format
[12] = read-out: DR2w2B2 nM, Table VIII, In IC50 Format

Row | Compound | IC50 (DRB10404 (DR4w14); [1]) | IC50 (DRB1*0701 (DR7); [2]) | IC50 (DRB1*1101 (DR5w11); [3]) | IC50 (DRB1*0101 (DR1); [4]) | IC50 (DRB1*0401 (DR4w4); [5]) | IC50 (DRB5*0101 (DR2w2a); [6]) | IC50 (DRB10404 (DR4w14); [7]) | IC50 (DRB1*0701 (DR7); [8]) | IC50 (DRB1*1101 (DR5w11); [9]) | IC50 (DRB1*0101 (DR1); [10]) | IC50 (DRB1*0401 (DR4w4); [11]) | IC50 (DRB5*0101 (DR2w2a); [12])
1 | CC[C@H](C)[C@H](NC(=O)[C@H](C)NC(=O)CNC(=O)[C@H](Cc1ccccc1)NC(=O)[C@H](CC(N)=O)NC(=O)[C@H](CC(N)=O)NC(=O)[C@H](N)CO)C(=O)N[C@@H](CC(C)C)C(=O)N[C@@H](CO)C(=O)N[C@@H](CO)C(=O)N[C@H](C(=O)N[C@@H](CC(N)=O)C(=O)N[C@H](C(=O)NCC(N)=O)C(C)C)[C@@H](C)O [Peptide 735.05] (H-[dS]NNFGAILSSTNVG-NH2) | 376 nM | 12500 nM | 20000 nM | 48.5 nM | 273 nM | 2860 nM |  |  |  |  |  | 
2 | AAFAAAAAQRLFA-NH2 [Peptide 761.01] | 3330 nM | 7.6 nM | 556 nM | 2.3 nM | 30 nM | 1.2 nM |  |  |  |  |  | 
3 | YAEFQSQTTLKAKT-NH2 [Peptide 717.41] | 65.8 nM | 25000 nM | 38.5 nM | 23.8 nM | 32.1 nM | 667 nM |  |  |  |  |  | 
4 | KYLATASTMDHARHGFLP [Peptide 765.02] | 86.5 nM | 157 nM | 5000 nM | 50000 nM | 100 nM | 10000 nM |  |  |  |  |  | 
5 | YARFQSQTTIKAKT-NH2 [Peptide 717.19] | 19.2 nM | 2080 nM | 30.3 nM | 5.7 nM | 3.2 nM | 143 nM |  |  |  |  |  | 
6 | YARFQSQTYLKAKT-NH2 [Peptide 717.33] | 8330 nM | 641 nM | 1540 nM | 1670 nM | 187 nM | 256 nM |  |  |  |  |  | 
7 | YARAQSQTTLKAKT-NH2 [Peptide 717.29] | 41.7 nM | 3570 nM | 20000 nM | 556 nM | 30 nM | 1820 nM |  |  |  |  |  | 
8 | YARFQSQTALKAKT-NH2 [Peptide 717.52] | 31.3 nM | 1140 nM | 33.3 nM | 2.2 nM | 4.6 nM | 15.4 nM |  |  |  |  |  | 
9 | INSWVESQTNGIIRNVLQPS [Peptide 732.01] | 269 nM | 269 nM | 6670 nM | 385 nM | 166 nM | 1330 nM |  |  |  |  |  | 
10 | YARFQSQTTKKAKT-NH2 [Peptide 717.20] | 200 nM | 5000 nM | 339 nM | 11.1 nM | 12.5 nM | 87 nM |  |  |  |  |  | 
11 | CC(C)C[C@H](NC(=O)[C@H](CCCCN)NC(=O)[C@H](CC(C)C)NC(=O)[C@@H](NC(=O)[C@H](CC(N)=O)NC(=O)[C@H](CCC(N)=O)NC(=O)[C@H](CCCCN)NC(=O)[C@@H](NC(=O)[C@H](Cc1ccc(O)cc1)NC(=O)[C@H](CCCCN)NC(=O)[C@@H]1CCCN1C(=O)[C@@H](N)CS)C(C)C)[C@@H](C)O)C(=O)N[C@@H](C)C(=O)N[C@H](C(=O)NCC(=O)O)[C@@H](C)O [Peptide 852.01] |  |  |  |  |  |  | 7140 nM | 65.8 nM | 39.2 nM | 31.6 nM | 30 nM | 2.9 nM
12 | YARFQSQATLKAKT-NH2 [Peptide 717.53] | 10.6 nM | 3570 nM | 20 nM | 2 nM | 9.2 nM | 167 nM |  |  |  |  |  | 
13 | YARFQSATTLKAKT-NH2 [Peptide 717.54] | 7.2 nM | 676 nM | 9.5 nM | 4.6 nM | 4.1 nM | 60.6 nM |  |  |  |  |  | 
14 | C[C@H](NC(=O)[C@H](C)NC(=O)[C@H](Cc1ccccc1)NC(=O)[C@H](C)NC(=O)[C@@H](C)N)C(=O)N[C@@H](C)C(=O)N[C@@H](C)C(=O)N1CCC[C@H]1C(=O)N[C@@H](CCCCN)C(=O)N[C@@H](C)C(=O)N[C@@H](C)C(=O)N[C@@H](C)C(=O)N[C@H](C)C(N)=O [Peptide 828.05] (H-[dA]AFAAAAPKAAA[dA]-NH2) |  |  |  |  |  |  | 6250 nM | 1320 nM | 105 nM | 1.9 nM | 155 nM | 15.6 nM
